Test results from patent US8207146B2, “Phenothiazine derivative having a double bond, method for the production thereof, and use thereof as a pharmaceutical” (Sanofi-Aventis, priority 2007, dated 2012).

Target: T1, Human glucokinase (Homo sapiens, UniProt P35557)
T1 sequence (P35557 6-464 isoform P35557-3 limits assumed): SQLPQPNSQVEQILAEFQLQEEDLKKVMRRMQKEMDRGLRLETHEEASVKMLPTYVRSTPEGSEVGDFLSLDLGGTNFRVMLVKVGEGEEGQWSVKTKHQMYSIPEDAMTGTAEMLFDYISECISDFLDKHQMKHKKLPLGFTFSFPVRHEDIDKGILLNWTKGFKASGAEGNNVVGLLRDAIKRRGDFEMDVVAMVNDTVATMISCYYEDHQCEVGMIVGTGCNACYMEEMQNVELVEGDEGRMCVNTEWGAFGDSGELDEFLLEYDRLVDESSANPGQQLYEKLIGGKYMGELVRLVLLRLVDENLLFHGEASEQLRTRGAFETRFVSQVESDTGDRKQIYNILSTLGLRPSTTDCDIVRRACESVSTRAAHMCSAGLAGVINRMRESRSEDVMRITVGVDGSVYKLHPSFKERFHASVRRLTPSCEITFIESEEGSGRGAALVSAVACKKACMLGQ
Settings: 5 mM glucose; for EC150: concentration of test compound which increases the enzymatic activity by 50%, 1 mM ATP, 25° C., pH 7; for Fold induction: maximum fold stimulation: highest change in extinction in the range 0.1-100 μM relative to change without test substance

| EC150 [µM] | Fold induction | Compound |
| --- | --- | --- |
| 0.2 | 4.8 | COc1ccc2nc(NC(=O)/C(=C/C3CCC(=O)CC3)c3ccc4c(c3)Nc3ccccc3S4(=O)=O)sc2n1 [Example 4, (E)-2-(5,5-dioxo-5,10-dihydrophenothiazin-2-yl)-N-(5-methoxythiazolo[5,4-b]pyridin-2-yl)-3-(4-oxocyclohexyl)acrylamide] |
| 1.70 | 3.2 | CN1c2ccccc2S(=O)(=O)c2ccc(/C(=C\C3CCCC3)C(=O)Nc3ccn(C)n3)cc21 [Example 1, (E)-3-cyclopentyl-2-(10-methyl-5,5-dioxo-5,10-dihydrophenothiazin-2-yl)-N-(1-methyl-1H-pyrazol-3-yl)acrylamide] |
